# Results reported in patent US6667387B1, “HCV core peptides” (priority 1992, dated 2003).
# Ends that are not written are not given here. * marks the point of attachment. Biotin = O=C1N[C@H]2[C@H](CS[C@H]2CCCCC(=O)*)N1
# Tests used:
# Type in all cases: binding, human
# [1] = test system: antibodies in antisera from HIV-2 infected persons; assay: ELISA with HIV-2 antibody-positive sera (biotinylated peptides on streptavidin- or avidin-coated plates, unbiotinylated peptides coated directly)
# Description: (§1) Where peptides were to be coated directly, stock solutions of the peptides were diluted in sodium carbonate buffer, pH 9.6 and used to coat polystyrene microtiter plates at a peptide concentration of 2 to 5 micrograms per milliliter for 1 hour at 37° C.
# (§2) In cases where biotinylated peptides were to be evaluated, plates were first coated with streptavidin in sodium carbonate buffer, pH 9.6 at a concentration of 3 micrograms per milliliter for 1 hour at 37° C. The plates were then washed to remove excess, unbound protein. A working solution of the biotinylated peptide at 1 microgram per milliliter in sodium carbonate buffer was then added to the wells of the microtiter plate and incubated for 1 hours at 37° C.
# (§3) Once the plates had been coated with antigen, any remaining free binding sites on the plastic were blocked with casein. After washing, a dilution of the appropriate antisera, usually 1:100, was added to the wells of the plates and incubated for 1 hour at 37° C.
# (§4) After washing to remove unbound material, specific antibody binding was detected by incubating the plates with goat anti-human immunoglobulin antibodies conjugated to the enzyme horseradish peroxidase. Following removal of unbound conjugate by washing, a solution containing H2O2 and 3,3′,5,5′-tetramethylbenzidine was added.
# (§5) Reactions were stopped after a suitable interval by addition of sulfuric acid. […] Absorbance measurements were made at a wavelength of 450 nanometers and all data are expressed as an optical density value at this wavelength.
# The biotinylated peptides were loaded onto microtiter plates which had been coated with streptavidin. Antibody binding to these peptides was compared to antibody binding to the unibiotinylated peptides which were coated directly onto microtiter plates. It is evident that the biotinylated peptides from the HIV-1 or HIV-2 transmembrane proteins bound to streptavidin are recognized very well by antisera from HIV-1 or HIV-2 infected persons respectively. This is in contrast to the unbiotinylated versions of these peptides coated directly onto the polystyrene plates.
# (§6) To determine how well biotinylated peptides would function in a mixture when bound to streptavidin- or avidin-coated plates, two mixtures were made of the N-terminally biotinylated versions of the HIV-1 peptides TM-HIV-1 (hereabove referred to as 1a.1) and V3-nm (hereabove referred to as 1b.4), the HIV-2 peptide TM-HIV-2 (hereabove referred to as 2a), and the hepatitis C virus peptides II, IX, and XVIII. Mixture A contained each of the six biotinylated peptides at a concentration of 1 microgram per milliliter (6 micrograms per milliliter peptide, total) while in mixture B, each peptide was present at a concentration of 0.1 microgram per milliliter (0.6 microgram per milliliter peptide, total). The individual peptides were coated at a concentration of 1 microgram per milliliter. For purposes of comparison, mixtures A and B were also coated directly onto the wells of a microtiter plate. Samples from HIV-1, HIV-2, and HCV-seropositive donors were tested and compared to sera from seronegative blood donors. A cut-off absorbance value of 0.250 was used to determine whether a reaction was positive or negative. Absorbance values equal or greater than 0.250 were considered positive while absorbance values below this value were considered negative.
# Two glycine residues were added at the N-terminus of each peptide to serve as a spacer and a biotin was coupled to the α-amino group of the resulting N-terminal glycine. The peptides were bound to streptavidin and coated in the wells of microwell plates. HIV-2 antibody-positive sera were used to evaluate these two peptides in an ELISA.
# [2] = test system: antibodies in antisera from HIV-1 infected persons; assay: ELISA with HIV-1 antibody-positive sera (biotinylated peptides on streptavidin- or avidin-coated plates, unbiotinylated peptides coated directly)
# Description: as §1, §2, §3, §4, §5
# Experiments were performed to evaluate antibody recognition of short, 10 amino acid-long, N-acetylated peptides corresponding to other contained within the transmembrane proteins of HIV-1 and HIV-2. […] The peptides used for the comparison were as follows:
# Antibody binding to these peptides was compared to antibody binding to the unibiotinylated peptides which were coated directly onto microtiter plates.
# In order to evaluate antibody recognition of these two peptides, the peptides were bound individually to streptavidin-coated microtiter plates and tested using a panel of antisera from HIV-1 seropositive donors.
# as §6
# A spacer consisting of two glycine residues was added to the amino terminus.
# [3] = test system: HIV-1 anti-V3 loop antibodies in sera; assay: Line immunoassay (LIA) with HIV-1 gp120 V3 loop peptides; conditions: for recognition of peptide, % of sera: Table 15
# From the text: In order to determine the general diagnostic value of the V3 loop region of gp120, nine peptides derived from this region of nine different HIV-1 isolates were synthesized and included in a LIA. All nine peptides were provided with a Gly-Gly spacer and an N-terminal biotin. The aligned peptides (one-letter amino acid code) sequences are as follows: (SEQ ID NOs: 154-162, respectively)
# The peptides were mixed with streptavidin in a slight molar excess over biotin binding sites and the peptide:streptavidin complexes were separated from unbound material over Sephadex G-25. Material eluting in the void volume was used in the preparation of the LIA.
# A total of 332 sera were tested which had been obtained from various geographical regions. […] The reactions of the various lines were evaluated as positive (i) or negative (o) (data not shown).
# In total, 307 of the 332 sera gave a reaction to at least one peptide on the V3-loop LIA. […] The total number of positive sera tested was therefore 326. […] There were, however, significant geographical differences.
# [4] = Table 8, serum 1400 (HIV-2), Avidin
# [5] = Table 8, serum AG (HIV-2), Avidin
# [6] = Table 8, serum 3990 (HIV-1), Avidin
# [7] = Table 8, serum DV (HIV-1), Avidin
# [8] = Table 8, serum PL (HIV-1), Avidin
# [9] = Table 8, serum YS (HIV-1), Avidin
# [10] = Table 14, HIV-V3 positive sera, 307
# [11] = Table 14, gp120 positive sera, COUNT 326
substance,measurement,setting,value
ETWKKPDYEPPVVHGCPLPP,optical density (450 nm),[1]; [4],1.362
same,optical density (450 nm),[1]; [5],0.058
same,optical density (450 nm),[2]; [6],0.056
same,optical density (450 nm),[2]; [7],0.047
same,optical density (450 nm),[2]; [8],0.052
same,optical density (450 nm),[2]; [9],0.049
Bio-Gly-Gly-Tyr-Asn-Lys-Arg-Lys-Arg-Ile-His-Ile-Gly-Pro-Gly-Arg-Ala-Phe-Tyr-Thr-Thr-Lys-Asn-Ile-Ile-Gly-NH2 (Biotin-GGYNKRKRIHIGPGRAFYTTKNIIG-NH2) [V3-mn Bio],optical density (450 nm),[1]; [4],0.055
same,optical density (450 nm),[1]; [5],0.068
same,optical density (450 nm),"[2]; Table 2, sample 266",2.591
same,"optical density (450 nm), off scale","[2]; Table 2, sample 3990",overflow* (Absorbance value greater than 3.000)
same,optical density (450 nm),"[2]; Table 2, sample 4436",2.268
same,optical density (450 nm),"[2]; Table 2, sample 4438",2.554
same,optical density (450 nm),"[2]; Table 2, sample DV",2.881
same,optical density (450 nm),"[2]; Table 2, sample MM",2.542
same,"optical density (450 nm), off scale","[2]; Table 2, sample OOST 4",overflow* (Absorbance value greater than 3.000)
same,optical density (450 nm),"[2]; Table 2, sample OOST 6",2.355
same,"optical density (450 nm), off scale","[2]; Table 2, sample OOST 8",overflow* (Absorbance value greater than 3.000)
same,optical density (450 nm),"[2]; Table 2, sample PL",2.351
same,"optical density (450 nm), off scale","[2]; Table 2, sample VE",overflow* (Absorbance value greater than 3.000)
same,optical density (450 nm),"[2]; Table 2, sample YS",2.784
same,optical density (450 nm),"[2]; Table 3, serum 3990, peptide bound to avidin",1.854
same,optical density (450 nm),"[2]; Table 3, serum 3990, peptide bound to streptavidin",1.391
same,optical density (450 nm),"[2]; Table 3, serum 4436, peptide bound to avidin",1.519
same,optical density (450 nm),"[2]; Table 3, serum 4436, peptide bound to streptavidin",0.596
same,optical density (450 nm),"[2]; Table 3, serum DV, peptide bound to avidin",1.748
same,optical density (450 nm),"[2]; Table 3, serum DV, peptide bound to streptavidin",1.041
same,optical density (450 nm),"[2]; Table 3, serum PL, peptide bound to avidin",0.983
same,optical density (450 nm),"[2]; Table 3, serum PL, peptide bound to streptavidin",0.222
same,optical density (450 nm),"[2]; Table 3, serum VE, peptide bound to avidin",1.908
same,optical density (450 nm),"[2]; Table 3, serum VE, peptide bound to streptavidin",1.526
same,optical density (450 nm),"[2]; Table 3, serum YS, peptide bound to avidin",1.721
same,optical density (450 nm),"[2]; Table 3, serum YS, peptide bound to streptavidin",1.236
same,optical density (450 nm),[2]; [6],2.319
same,optical density (450 nm),[2]; [7],2.340
same,optical density (450 nm),[2]; [8],1.321
same,optical density (450 nm),[2]; [9],2.201
same,% Reactive,[3]; [10],90%
same,"Total SUM (reactive sera), printed on the line COUNT",[3]; [10],275
same,% Reactive,[3]; [11],84%
same,Total SUM (reactive sera),[3]; [11],275
same,"recognition of peptide, % of sera",[3]; AFRICAN sera,85%
same,"recognition of peptide, % of sera",[3]; BRAZILIAN sera,78%
same,"recognition of peptide, % of sera",[3]; EUROPEAN sera,97%
Bio-Gly-Gly-Gly-Ile-Trp-Gly-Cys-Ser-Gly-Lys-Leu-Ile-Cys-NH2 (Biotin-GGGIWGCSGKLIC-NH2; cysteine pairing not given here) [TM-HIV-1 Bio],optical density (450 nm),"[1]; Table 1, serum 53-3, HIV-2 positive",0.000
same,optical density (450 nm),"[1]; Table 1, serum 1400, HIV-2 positive",0.000
same,optical density (450 nm),"[1]; Table 1, serum AG, HIV-2 positive",0.000
same,optical density (450 nm),[1]; [4],0.051
same,optical density (450 nm),[1]; [5],0.054
same,optical density (450 nm),"[2]; Table 1, serum 0724, HIV-1 positive",2.570
same,optical density (450 nm),"[2]; Table 1, serum PL, HIV-1 positive",1.559
same,optical density (450 nm),"[2]; Table 1, serum VE, HIV-1 positive",2.551
same,optical density (450 nm),"[2]; Table 1, serum YEMO, HIV-1 positive",2.357
same,optical density (450 nm),"[2]; Table 1, serum mm, HIV-1 positive",2.579
same,optical density (450 nm),"[2]; Table 6, serum 0369/87, HIV positive",2.042
same,optical density (450 nm),"[2]; Table 6, serum 0724, HIV positive",2.291
same,optical density (450 nm),"[2]; Table 6, serum 1164, HIV positive",1.919
same,optical density (450 nm),"[2]; Table 6, serum 1252, HIV positive",2.356
same,optical density (450 nm),"[2]; Table 6, serum 2049, HIV positive",2.058
same,optical density (450 nm),"[2]; Table 6, serum 3990, HIV positive",1.870
same,optical density (450 nm),"[2]; Table 6, serum 4436, HIV positive",2.110
same,optical density (450 nm),"[2]; Table 6, serum 4438, HIV positive",1.697
same,optical density (450 nm),"[2]; Table 6, serum DV, HIV positive",1.579
same,optical density (450 nm),"[2]; Table 6, serum MM, HIV positive",2.308
same,optical density (450 nm),"[2]; Table 6, serum OOST 6, HIV positive",2.003
same,optical density (450 nm),"[2]; Table 6, serum OOST 7, HIV positive",2.027
same,optical density (450 nm),"[2]; Table 6, serum OOST 8, HIV positive",2.237
same,optical density (450 nm),"[2]; Table 6, serum OOST 9, HIV positive",2.222
same,optical density (450 nm),"[2]; Table 6, serum PL, HIV positive",1.849
same,optical density (450 nm),"[2]; Table 6, serum VCM, HIV positive",2.263
same,optical density (450 nm),"[2]; Table 6, serum VE, HIV positive",2.240
same,optical density (450 nm),[2]; [6],1.602
same,optical density (450 nm),[2]; [7],1.329
same,optical density (450 nm),[2]; [8],1.974
same,optical density (450 nm),[2]; [9],0.046
IIPDREVLYREFDEMEECSQ,optical density (450 nm),[1]; [4],0.052
same,optical density (450 nm),[1]; [5],0.064
same,optical density (450 nm),[2]; [6],0.066
same,optical density (450 nm),[2]; [7],0.049
same,optical density (450 nm),[2]; [8],0.056
same,optical density (450 nm),[2]; [9],0.049
PQRKTKRNTNRRPQDVKFPG,optical density (450 nm),[1]; [4],0.121
same,optical density (450 nm),[1]; [5],0.081
same,optical density (450 nm),[2]; [6],0.054
same,optical density (450 nm),[2]; [7],0.047
same,optical density (450 nm),[2]; [8],0.052
same,optical density (450 nm),[2]; [9],0.048
